Entries after “also recorded” stand apart in the source; their conditions may differ.

The conditions of data set [1]: cited from earlier work.
Data set [2] has as its system oral and gastric mucosa. Conditions: oral administration (b7), mucosa of the mouth, aqueous suspension (b9); cited from earlier work.
For data set [3] the following is noted: oral route, tablet; cited from earlier work.
Data set [4] in a line: Stability (degradation, colour) of lysine-containing preparation. The format is physicochemical. The following applies: larger amounts of lysine (more than 30-40% of arginine substituted).

As for `CC(C)Cc1ccc(C(C)C(=O)O)cc1` (stereo not shown) [Ibuprofen, 2-(4-isobutyl-phenyl)-propionic acid], in data set [1], the Solubility in water entry is “very low solubility in water”. The Irritability of mucosa entry in data set [2] was “some irritability of gastric mucosa; also recorded: irritant for the mucosa of the mouth”. In data set [3], the Kinetics of absorption result is on record as “relatively slow kinetics of absorption”.
Regarding `NCCCC[C@H](N)C(=O)O` [lysine], in data set [4], the “Degradation / brown colour of the pharmaceutical preparation” value is reported as “easily degrades making of a brown colour the pharmaceutical preparation”.

The record behind these values is patent US4689218A, “Effervescent composition with analgesic activity” (priority 1985, dated 1987).
